Data as given in US8058247B2 (priority 2006, dated 2011).

Key:
[1] = system: M. avium subsp. avium ATCC25291; assay: Minimum growth inhibitory concentration (MIC), serial dilution on Middlebrook 7H10 agar with mycobactin J; type: cell-based, Mycobacterium avium subsp. avium; details: 3-week incubation at 37° C., smaller number = higher activity
[2] = system: M. avium subsp. paratuberculosis ATCC43015; type: cell-based, Mycobacterium avium subsp. paratuberculosis
M. bovis BCG Japanese = type: cell-based, Mycobacterium bovis; details: agar dilution, 3-week incubation at 37° C.; smaller number = higher activity

NNC(=O)c1ccncc1 [INH, isoniazid]
Minumum growth inhibitory conc. of test compounds, M. avium subsp. avium ATCC25291 [1]: >50 µg/mL
Minumum growth inhibitory conc. of test compounds, M. avium subsp. paratuberculosis ATCC43015 [2]: >50 µg/mL
antibacterial activity against Mycobacterium avium subsp. paratuberculosis compared with the caprazamycin derivatives of Production Examples 1 and 2 [2]: lower antibacterial activity
Minumum growth inhibitory conc. of test compounds, M. bovis BCG Japanese (M. bovis BCG Japanese): 0.20 µg/mL

caprazamycin B [CPZ-B]
Minumum growth inhibitory conc. of test compounds, M. avium subsp. avium ATCC25291 [1]: 12.5 µg/mL
Minumum growth inhibitory conc. of test compounds, M. avium subsp. paratuberculosis ATCC43015 [2]: 3.13 µg/mL
antibacterial activity against Mycobacterium avium subsp. paratuberculosis compared with the caprazamycin derivatives of Production Examples 1 and 2 [2]: lower antibacterial activity
Minumum growth inhibitory conc. of test compounds, M. bovis BCG Japanese (M. bovis BCG Japanese): 6.25 µg/mL

caprazol-3′″-dodecanoyl ester derivative [Compound VII-F]
Minumum growth inhibitory conc. of test compounds, M. avium subsp. avium ATCC25291 [1]: 12.5 µg/mL
Minumum growth inhibitory conc. of test compounds, M. avium subsp. paratuberculosis ATCC43015 [2]: 0.78 µg/mL
Minumum growth inhibitory conc. of test compounds, M. bovis BCG Japanese (M. bovis BCG Japanese): 3.13 µg/mL
